Assay results as given in PMC8329730 (Journal of medicinal chemistry, 2019).
Structures can show the parent of a compound that is named as a salt.

What was measured:
[1] = human liver microsome intrinsic clearance; conditions: human liver microsomes
[2] = LogD; type: physicochemical; conditions: pH 7.4
[3] = mouse PK, blood and brain, 10 mg/kg IP; type: in vivo; conditions: female, NMRI, whole blood
[4] = toxicity observed on dosing mice; type: in vivo, mouse; conditions: 50 mg/kg QD

## 1-((6aR,9aR)-4-(2-Aminopyrimidin-4-yl)-6a,7,8,9,9a,10-hexahydro-2H-cyclopenta[2,3][1,4]oxazepino[5,6,7-cd]indazol-2-yl)ethan-1-one [compound 49]
[1]
  HLM Clint: highly cleared

## c1ccc2c(c1)Nc1n[nH]c3cccc(c13)O2 [9a]
[2]
  logD: 4.1

## CCOc1cc(-c2ccnc(N)n2)cc2[nH]nc(N)c12 [57a, 6-(2-Aminopyrimidin-4-yl)-4-ethoxy-1H-indazol-3-amine formate]
[3]
  Tmax: 15 to 30 min

## Cn1nc2c3c(cc(-c4ccnc(N)n4)cc31)Oc1ccccc1N2 [compound 18, 4-(2-Methyl-2,11-dihydrobenzo[2,3][1,4]oxazepino[5,6,7-cd]indazol-4-yl)pyrimidin-2-amine]
[4]
  animals dying within 30 minutes of treatment: 50%
[4]; resolved with time
  animals experiencing inflammation after dosing: 50%
[3]
  Tmax: 15 to 30 min
